Series [1] concerns the target T1, ACE (Oryctolagus cuniculus, UniProt P12822).
T1 sequence (P12822 34-1310): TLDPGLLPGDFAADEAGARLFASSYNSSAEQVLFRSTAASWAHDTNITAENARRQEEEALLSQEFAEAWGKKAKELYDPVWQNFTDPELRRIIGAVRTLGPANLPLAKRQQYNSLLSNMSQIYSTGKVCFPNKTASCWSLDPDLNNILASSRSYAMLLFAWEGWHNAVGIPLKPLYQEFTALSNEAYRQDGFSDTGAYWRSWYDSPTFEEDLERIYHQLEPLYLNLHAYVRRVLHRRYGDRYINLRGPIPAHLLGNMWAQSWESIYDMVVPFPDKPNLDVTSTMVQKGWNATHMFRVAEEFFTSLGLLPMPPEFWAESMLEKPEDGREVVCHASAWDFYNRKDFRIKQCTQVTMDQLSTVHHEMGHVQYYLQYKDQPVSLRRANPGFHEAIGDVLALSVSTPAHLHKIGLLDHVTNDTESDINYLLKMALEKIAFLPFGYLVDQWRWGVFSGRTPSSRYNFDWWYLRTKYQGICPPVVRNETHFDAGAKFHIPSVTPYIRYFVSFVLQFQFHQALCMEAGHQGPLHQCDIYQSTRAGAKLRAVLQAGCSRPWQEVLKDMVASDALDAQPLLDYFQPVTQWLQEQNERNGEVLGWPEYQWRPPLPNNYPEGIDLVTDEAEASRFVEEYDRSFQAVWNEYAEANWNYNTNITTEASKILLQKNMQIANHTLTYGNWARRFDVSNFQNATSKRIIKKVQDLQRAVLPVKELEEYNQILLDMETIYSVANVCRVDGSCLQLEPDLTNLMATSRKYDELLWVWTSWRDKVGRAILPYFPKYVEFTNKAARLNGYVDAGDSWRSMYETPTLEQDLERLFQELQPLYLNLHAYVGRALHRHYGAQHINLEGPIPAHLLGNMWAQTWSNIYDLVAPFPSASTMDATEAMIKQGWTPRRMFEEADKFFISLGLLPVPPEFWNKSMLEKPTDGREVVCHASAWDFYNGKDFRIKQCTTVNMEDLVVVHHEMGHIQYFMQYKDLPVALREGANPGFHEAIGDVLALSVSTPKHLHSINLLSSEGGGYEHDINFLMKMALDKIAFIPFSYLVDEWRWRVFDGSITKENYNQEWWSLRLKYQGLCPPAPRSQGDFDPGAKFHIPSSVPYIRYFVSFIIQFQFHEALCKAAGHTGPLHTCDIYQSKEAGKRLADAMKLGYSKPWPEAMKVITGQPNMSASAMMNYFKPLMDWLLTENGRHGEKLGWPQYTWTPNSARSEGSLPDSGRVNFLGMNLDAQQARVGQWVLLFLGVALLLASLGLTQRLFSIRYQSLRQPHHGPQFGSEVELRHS
As to conditions: cited from earlier work.

Series [2] concerns enzyme isolated from hog lung (ACE). As to conditions: cited from earlier work.
Series [3] concerns the target T1, ACE. As to conditions: compared with a buffer presumably lacking chloride; cited from earlier work.
The nature of series [4]: Solvent extraction of substrate and remnant product from acidified reaction mixture. It is filed as physicochemical. As to conditions: toluene and acidified reaction mixture in approximately equal volumes at room temperature. From the text: While a variety of organic solvents may be suitable for the extraction step, it is preferred to employ toluene.
[5] abbreviates: sulfate ion 0.6 M in the presence of 0.1 M chloride, pH 8.

Square brackets hold non-standard residues; d marks the D form. Peptide text beside a SMILES is read from it. * marks the point of attachment. pGlu = O=C1CC[C@@H](C(=O)O)N1; Boc = CC(C)(C)OC(=O)*; Bz = O=C(c1ccccc1)*; ClAc = O=C(CCl)*

Results on eight molecules are retold here after patent US4276378A, “High sensitivity assays for angiotensin converting enzyme” (priority 1977, dated 1981).

On to `C[C@H](NC(=O)[C@H](Cc1c[nH]c2ccccc12)NC(=O)[C@H](CCCCN)NC(=O)[C@@H]1CCC(=O)N1)C(=O)O` [<GluLysTrpAla] ([pGlu]KWA-OH), for which the ACE inhibition entry at ACE [1] was “ACE inhibitors”. For the molecule `C[C@H](NC(=O)[C@H](Cc1c[nH]c2ccccc12)NC(=O)[C@@H]1CCC(=O)N1)C(=O)N1CCC[C@H]1C(=O)O` [<GluTrpAlaPro] ([pGlu]WAP-OH), at ACE [1], the ACE inhibition result is “ACE inhibitors”. On to `O=C(O)CNC(=O)CNC(=O)CNC(=O)c1ccccc1` [HipGlyGly] (Bz-Gly-Gly-Gly-OH), for which the “hydrolysis in the absence of NaCl” value in series [2] (Na2 SO4 0.001 M to 0.6 M, no NaCl) is “no hydrolysis”. Also, in series [2] (setting [5]), the “decrease of Km by sulfate” value is on record as “about 15%” and the “increase of Vmax by sulfate” value was “about 5 fold”.

Consider `C[C@H](NC(=O)[C@@H](N)Cc1ccccc1)C(=O)N1CCC[C@H]1C(=O)O` [PheAlaPro] (H-Phe-Ala-Pro-OH), for which the ACE inhibition entry at ACE [1] is on record as “inhibit ACE”.

As to `C[C@H](NC(=O)[C@H](Cc1c[nH]c2ccccc12)NC(=O)[C@H](CCCCN)NC(=O)[C@@H]1CCC(=O)N1)C(=O)N1CCC[C@H]1C(=O)O` [SQ20475, <GluLysTrpAlaPro] ([pGlu]KWAP-OH), the “rate of cleavage in the presence of chloride” value on ACE [3] is listed as “more slowly”. For the molecule `O=C(N[C@@H](Cc1ccccc1)C(=O)O)c1ccccc1` [^3 H-benzoylPhe, benzoylPhe], the “fraction entering the toluene phase” value in series [4] is on record as “Approximately 88%”.

For `C[C@H](NC(=O)[C@H](Cc1ccccc1)NC(=O)CCl)C(=O)N1CCC[C@H]1C(=O)O` [chloroacetylPheAlaPro] (ClAc-Phe-Ala-Pro-OH), the ACE inhibition result at ACE [1] is listed as “ACE inhibitors”. In the case of `C[C@H](NC(=O)[C@H](Cc1ccccc1)NC(=O)OC(C)(C)C)C(=O)N1CCC[C@H]1C(=O)O` [t-butyloxycarbonylPheAlaPro] (Boc-Phe-Ala-Pro-OH), the ACE inhibition result at ACE [1] is “inhibit ACE”.
